Reference: PMC6589325, “Evaluation of Anti-HIV-1 Integrase and Anti-Inflammatory Activities of Compounds from Betula alnoides Buch-Ham” (Advances in Pharmacological Sciences, 2019)
Read-outs that look alike come from different tables or passages of the source.

Experiments:
HIV-1 IN [1] = target: T1, HIV-1 IN (Human immunodeficiency virus type 1 group M subtype B, UniProt P04585); details: cited from earlier work; for IC50: read-out: IC50 against HIV-1 IN (converted); for Effect against HIV-1 IN: isolated from Coleus parvifolius
T1 construct: using HIV-1 IN enzymes according to the multiplate integration assay (MIA)

HIV-1 IN [2] = target: T1, HIV-1 IN; assay: HIV-1 IN inhibitory activity, multiplate integration assay (MIA); type: biochemical
Method: The anti-HIV IN activity of isolated compounds was determined in an in vitro model using HIV-1 IN enzymes according to the multiplate integration assay (MIA) as previously described. Briefly, a mixture (45 μL) composed of 12 μL of IN buffer (containing 150 mM 3-(N-morpholino)propanesulfonic acid, pH 7.2 (MOPS), 75 mM MnCl2, 5 mM dithiothreitol (DTT), 25% glycerol, and 500 μg/mL bovine serum albumin), 1 μL of 5 pmol/mL digoxigenin-labeled target DNA, and 32 μL of sterilized water was added into each well of a 96-well plate. Subsequently, 6 μL of sample solution in DMSO and 9 μL of a 1/5 dilution of the IN enzyme were added to each well and incubated at 37°C for 80 min. After washing the plate three times with PBS with 0.05% Tween 20 (PBST), 100 μL of 500 mU/mL alkaline phosphatase- (AP-) labeled anti-digoxigenin antibody was added and incubated at 37°C for 1 h. The plates were washed with PBS three times. Then, AP buffer (150 μL) containing 100 mM Tris-HCl (pH 9.5), 100 mM NaCl, 5 mM MgCl2, and 10 mM p-nitrophenyl phosphate was added to each well and incubated at 37°C for 1 h. Finally, the absorbance of p-nitrophenol, the final product of the integration reaction, was measured with a microplate reader (Rayto, RT-2100C) at a wavelength of 405 nm. Suramin, a polyanionic HIV-1 IN inhibitor, was used as a positive control.

[3] = system: LPS-induced nitric oxide production in RAW264.7 cells; assay: Inhibitory effect on LPS-induced nitric oxide (NO) production in RAW264.7 cells (Griess reagent); type: cell-based; details: for inhibition at 3 µM / inhibition at 10 µM / inhibition at 30 µM / inhibition at 100 µM: read-out: % Inhibition at various concentration (μM), NO production; for IC50: read-out: IC50, inhibition of LPS-induced NO production
Method: To evaluate the anti-inflammatory activity, an inhibitory effect on nitric oxide (NO) production was carried out according to the previous report described by Sudsai et al.. Briefly, RAW264.7 cells were seeded onto 96-well plates (1 × 10^5 cells/well) and were maintained to adhere at 37°C for 1 h in a CO2 incubator containing 5% CO2. They were then cultured in RPMI-1640 medium containing lipopolysaccharide (LPS, 100 ng/ml) together with the test compounds at various concentrations (3–100 μM). After 24 h of incubation, the nitrite (NO^2–) concentration in the culture medium was determined as an indicator of NO production using the Griess reagent to assay the accumulation of NO^2–, a stable metabolite of NO. The absorbance was measured using a microplate reader at 570 nm. In this study, NO synthase inhibitor (L-nitro-arginine, L-NA), nuclear translocation of NF-κB inhibitor (caffeic acid phenethyl ester, CAPE) and nonsteroidal anti-inflammatory drug, NSAID (indomethacin), were used as positive controls.

[4] = system: RAW264.7 macrophage cells; assay: Viability assay of RAW264.7 macrophage cells (MTT); details: 24 h, cytotoxic when viability less than 80% of control
Method: The cytotoxicity of the test compounds after 24 h of incubation was determined by the colorimetric method described by Sudsai et al.. A volume of 10 μl of MTT solution (5 mg/ml in PBS) was added to each well of 96-well plates and further incubated in a CO2 incubator for 4 h. The formazan products generated by MTT reduction were dissolved in DMSO. At last, the medium was removed, 100 μl of DMSO was then added to each well and thoroughly mixed by gently tapping on the test plate. The absorbance of formazan solution was measured at a wavelength of 570 nm using a microplate reader. The test compounds were considered to be cytotoxic when the viability of the compound-treated group was less than 80% of that in the control (1% DMSO-treated) group.

[5] = read-out: % Inhibition at various concentrations
[6] = mean ± S.E.M. of four determinations, read-out: IC50, anti-HIV-1 integrase activity
[7] = Mus musculus, RAW264.7, 3 μM, LPS 100 ng/ml, 24 h
[8] = Mus musculus, RAW264.7, 10 μM, LPS 100 ng/ml, 24 h
[9] = Mus musculus, RAW264.7, 30 μM, LPS 100 ng/ml, 24 h
[10] = Mus musculus, RAW264.7, 100 μM, LPS 100 ng/ml, 24 h
[11] = Mus musculus, RAW264.7 cells, LPS 100 ng/ml, 24 h

Compound | inhibition at 10 µM (HIV-1 IN [2]; [5]) [%] | inhibition at 30 µM (HIV-1 IN [2]; [5]) [%] | inhibition at 100 µM (HIV-1 IN [2]; [5]) [%] | IC50 (HIV-1 IN [2]; [6]) [µM] | inhibition at 3 µM [3, 7] [%] | inhibition at 10 µM [3, 8] [%] | inhibition at 30 µM [3, 9] [%] | inhibition at 100 µM [3, 10] [%] | IC50 [3, 11] [µM] | further results
Oc1cc(O)c2c(c1)CCc1cc(O)c(O)cc1-2 [2,4,6,7-tetrahydroxy 9,10-dihydrophenanthrene] |  |  |  |  |  |  |  |  |  | IC50 (HIV-1 IN [1]; from bulbils of Dioscorea bulbifera): 14.2 µM
Oc1cc(O)c2c(c1)O[C@H](c1ccc(O)c(O)c1)[C@@H](O)C2 [(+)-Catechin] |  |  |  |  |  |  |  |  |  | IC50 (HIV-1 IN [1]; isolated from Albizia procera bark): 46.3 µM
C=C(C)[C@@H]1CC[C@]2(CO)CC[C@]3(C)[C@H](CC[C@@H]4[C@@]5(C)CC[C@H](O)C(C)(C)[C@@H]5CC[C@]43C)[C@@H]12 [Betulin (2), betulin] | 41.2 ± 1.5 | 57.6 ± 1.2 | 70.7 ± 2.1 | 17.7 ± 0.6 |  |  |  |  |  | inhibition at 3 µM ([3]; Mus musculus, RAW264.7, 24 h): 2.9 ± 1.9%; inhibition at 10 µM ([3]; Mus musculus, RAW264.7, 24 h): 13 ± 1.6%; inhibition at 30 µM ([3]; Mus musculus, RAW264.7, 24 h): 58 ± 1.1%; inhibition at 100 µM ([3]; Mus musculus, RAW264.7, 24 h): 81.8 ± 1.2%; IC50 ([3]; Mus musculus, RAW264.7, 24 h): 30.1 ± 0.3 µM; Cytotoxicity to RAW 264.7 cells [4]: caused cytotoxicity
C=C(C)[C@@H]1CC[C@]2(C(=O)O)CC[C@]3(C)[C@H](CC[C@@H]4[C@@]5(C)CC[C@H](O)C(C)(C)[C@@H]5CC[C@]43C)[C@@H]12 [Betulinic acid (1), betulinic acid] | 39 ± 2.3 | 53.2 ± 1.2 | 65.6 ± 2.1 | 24.8 ± 1.3 | 14.6 ± 2.3 | 22.1 ± 1.2 | 49.4 ± 3.2 | 79.5 ± 1.7 | 31 ± 1.9 | 
O=C(/C=C/c1ccc(O)c(O)c1)OCCc1ccccc1 [CAPE, caffeic acid phenethyl ester, reference compound] |  |  |  |  | 22.7 ± 3.1 | 48.6 ± 0.7 | 66.8 ± 0.5 | 85.9 ± 1 | 12.3 ± 0.8 | 
COc1ccc2c(c1)c(CC(=O)O)c(C)n2C(=O)c1ccc(Cl)cc1 [Indomethacin, indomethacin, reference compound] |  |  |  |  | 32 ± 2.6 | 43.8 ± 1.2 | 54.1 ± 2 | 79 ± 1.4 | 17.6 ± 1.6 | 
NC(=NCCC[C@H](N)C(=O)O)N[N+](=O)[O-] [L-NA, L-nitro-arginine, reference compound] |  |  |  |  |  |  |  |  |  | % Inhibition at various concentration (μM), NO production ([3]; 3 μM, LPS 100 ng/ml, 24 h): 19.3 ± 4.7%; % Inhibition at various concentration (μM), NO production ([3]; 10 μM, LPS 100 ng/ml, 24 h): 22.1 ± 1.9%; % Inhibition at various concentration (μM), NO production ([3]; 30 μM, LPS 100 ng/ml, 24 h): 32.6 ± 3.5%; % Inhibition at various concentration (μM), NO production ([3]; 100 μM, LPS 100 ng/ml, 24 h): 79.7 ± 4.8%; IC50 ([3]; RAW264.7 cells, LPS 100 ng/ml, 24 h): 40.4 ± 6.1 µM
C=C(C)[C@@H]1CC[C@]2(C)CC[C@]3(C)[C@H](CC[C@@H]4[C@@]5(C)CC[C@H](O)C(C)(C)[C@@H]5CC[C@]43C)[C@@H]12 [Lupeol (3), lupeol] | 12.2 ± 1.3 | 25.9 ± 2 | 40.6 ± 1.8 | > 100 | 6 ± 1.7 | 11.4 ± 2.7 | 23.4 ± 1.9 | 78.2 ± 1 | 47.3 ± 1 | IC50, anti-HIV-1 integrase activity (HIV-1 IN [2]; mean ± S.E.M. of four determinations): inactive; Cytotoxicity to RAW 264.7 cells [4]: caused cytotoxicity
CN1C[C@H](O)C[C@H]1C(=O)O [N-methyl-trans-4-hydroxy-L-proline] |  |  |  |  |  |  |  |  |  | IC50 (HIV-1 IN [1]; from Aglaia andamanica leaves): 81.3 µM
CC1(C)CC[C@]2(C(=O)O)CC[C@]3(C)C(=CC[C@@H]4[C@@]5(C)CC[C@H](O)C(C)(C)[C@@H]5CC[C@]43C)[C@@H]2C1 [Oleanolic acid (4), oleanolic acid] | 33.4 ± 1.8 | 49.1 ± 2.2 | 65.5 ± 1.5 |  | 10.9 ± 1.8 | 18.4 ± 1.2 | 28.2 ± 3.2 | 63.4 ± 1 | 62.8 ± 3.6 | IC50 (HIV-1 IN [2]; IC50, anti-HIV-1 integrase activity, mean ± S.E.M. of four determinations): 30.3 ± 1.3 µM
Cc1ccc(C(=O)Nc2ccc(S(=O)(=O)O)c3cc(S(=O)(=O)O)cc(S(=O)(=O)O)c23)cc1NC(=O)c1cccc(NC(=O)Nc2cccc(C(=O)Nc3cc(C(=O)Nc4ccc(S(=O)(=O)O)c5cc(S(=O)(=O)O)cc(S(=O)(=O)O)c45)ccc3C)c2)c1 [Suramin, reference compound] | 70.9 ± 1.5 | 93.3 ± 1.3 | 99.9 ± 1.7 | 2.8 ± 0.1 |  |  |  |  |  | inhibition at 1 µM (HIV-1 IN [2]; 1 μM, read-out: % Inhibition at various concentrations): 32.1 ± 0.6%; inhibition at 3 µM (HIV-1 IN [2]; 3 μM, read-out: % Inhibition at various concentrations): 50.3 ± 1.6%; IC50 (HIV-1 IN [2]; mean ± S.E.M. of four determinations, read-out: IC50, anti-HIV-1 IN activity of B. alnoides extract and its fractions (converted)): 3.01 µM
C[C@H]1[C@H](C)CC[C@]2(C(=O)O)CC[C@]3(C)C(=CC[C@@H]4[C@@]5(C)CC[C@H](O)C(C)(C)[C@@H]5CC[C@]43C)[C@H]12 [Ursolic acid (5), ursolic acid] | 31.6 ± 0.9 | 48.5 ± 1.2 | 60.2 ± 2.1 | 35 ± 1 | 5.4 ± 2.3 | 10.2 ± 3.2 | 13.6 ± 3.2 | 67.1 ± 1.8 | 68.7 ± 5.9 | 
O=C(/C=C/c1ccc(O)cc1)CC(=O)/C=C/c1ccc(O)cc1 [bisdemethoxycurcumin] |  |  |  |  |  |  |  |  |  | IC50 (HIV-1 IN [1]; from rhizomes of Boesenbergia kingii): 47.7 µM
COc1cc(O)c2c(=O)cc(-c3ccc(O)c(O)c3)oc2c1 [luteolin 7-methyl ether] |  |  |  |  |  |  |  |  |  | Effect against HIV-1 IN (HIV-1 IN [1]): potent
O=c1cc(-c2ccc(O)c(O)c2)oc2cc(O)cc(O)c12 [luteolin] |  |  |  |  |  |  |  |  |  | Effect against HIV-1 IN (HIV-1 IN [1]): potent
O=C(O)c1ccc(O)c(O)c1 [protocatechuic acid] |  |  |  |  |  |  |  |  |  | % inhibition of HIV-1 IN (HIV-1 IN [1]; 100 μM): 46.0%
